Assay results as given in US20230043863A1, “HETEROAROMATIC DERIVATIVES FOR USE AS REGULATOR, PREPARATION METHOD THEREFOR AND USE THEREOF” (JIANGSU HANSOH PHARMACEUTICAL GROUP CO., LTD., priority 2018, published 2023).
Read-outs that look alike come from different tables or passages of the source.

Columns and labels:
[1] = Balb/C mouse pharmacokinetics (plasma, colon, ileum); type: in vivo; conditions: male, po, Balb/C mice, p.o. 5 mg/kg; for Cmax: read-out: Blood concentration Cmax; for AUC(0-t): read-out: Curve area AUC0-t; for MRT: read-out: Mean detention time MRT; for Tmax: read-out: Time to peak tmax; for AUC(0-inf): read-out: Curve area AUC0-∞; for half-life: read-out: Half life period t1/2 (converted)
Outline: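 Male Balb/C mice (12 per group), fasted overnight, given 5 mg/kg p.o.; plasma, ileum and colon sampled at 0–7 h. Drug levels by LC/MS/MS, […]; parameters include colon/ileum and colon/plasma concentration ratios.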

[2] = target: JAK1 (Homo sapiens, UniProt P23458); experiment: JAK kinase activity inhibition, TR-FRET (JAK1); type: biochemical; conditions: TR-FRET kinase assay
Outline: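 Steps: compound dilutions added; JAK kinase (0.1-20 nM) in HEPES/MgCl2 buffer added; peptide substrate and ATP mix started the reaction, 0.5-5 h at room temperature; EDTA and labeled antibody added, 1-24 h further. IC50 derived from 620/665 nm signals by four-parameter nonlinear fitting.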

Sequence of JAK1 (P23458 whole entry): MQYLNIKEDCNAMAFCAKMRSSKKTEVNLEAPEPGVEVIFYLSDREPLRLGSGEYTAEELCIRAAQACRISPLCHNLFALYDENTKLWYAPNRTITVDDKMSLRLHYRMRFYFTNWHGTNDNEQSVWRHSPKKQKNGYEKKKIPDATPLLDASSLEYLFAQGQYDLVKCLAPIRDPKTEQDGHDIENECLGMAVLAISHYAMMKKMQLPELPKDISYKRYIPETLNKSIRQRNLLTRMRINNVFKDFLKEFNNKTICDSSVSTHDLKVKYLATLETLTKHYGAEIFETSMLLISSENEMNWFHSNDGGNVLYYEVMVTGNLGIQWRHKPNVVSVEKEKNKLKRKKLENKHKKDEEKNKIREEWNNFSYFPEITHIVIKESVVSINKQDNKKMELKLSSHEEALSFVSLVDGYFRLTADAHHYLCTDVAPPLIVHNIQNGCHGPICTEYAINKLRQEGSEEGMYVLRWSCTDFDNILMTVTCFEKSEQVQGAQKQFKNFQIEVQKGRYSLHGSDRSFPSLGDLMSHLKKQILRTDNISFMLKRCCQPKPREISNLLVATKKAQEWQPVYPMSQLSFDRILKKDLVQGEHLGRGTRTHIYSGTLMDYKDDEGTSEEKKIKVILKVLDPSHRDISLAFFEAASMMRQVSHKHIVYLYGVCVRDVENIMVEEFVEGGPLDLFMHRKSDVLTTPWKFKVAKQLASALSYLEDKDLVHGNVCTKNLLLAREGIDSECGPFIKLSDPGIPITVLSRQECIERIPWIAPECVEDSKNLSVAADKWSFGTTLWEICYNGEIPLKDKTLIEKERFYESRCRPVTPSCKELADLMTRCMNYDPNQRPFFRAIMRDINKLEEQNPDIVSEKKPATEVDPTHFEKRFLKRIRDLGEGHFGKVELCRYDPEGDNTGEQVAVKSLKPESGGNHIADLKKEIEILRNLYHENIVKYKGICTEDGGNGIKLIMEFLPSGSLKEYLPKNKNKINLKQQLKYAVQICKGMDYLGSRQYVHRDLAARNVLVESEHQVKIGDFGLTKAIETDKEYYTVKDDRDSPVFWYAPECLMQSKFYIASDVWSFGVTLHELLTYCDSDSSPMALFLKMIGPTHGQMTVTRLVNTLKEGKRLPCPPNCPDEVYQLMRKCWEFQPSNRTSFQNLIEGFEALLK

## Cc1cc(Nc2nc(N[C@@H]3C[C@H]4CC[C@@H](C3)N4S(=O)(=O)N3CC(C#N)C3)nc3sccc23)n[nH]1 [Embodiment 237, 1-(((3-exo)-3-((4-((5-methyl-1H-pyrazol-3-yl)amino)thieno[2,3-d]pyrimidin-2-yl)amino)-8-azabicyclo[3.2.1]oct-8-yl)sulfonyl)azetindin-3-formonitrile]
[1]; plasma, blood
  Cmax: 7.12 ng/mL
  AUC(0-t): 11 ng·h/mL
  MRT: 1.73 h
  Tmax: 2 h
[1]; colon
  Cmax: 2210 ng/mL
  AUC(0-t): 6460 ng·h/mL
  AUC(0-inf): 7240 ng·h/mL
  half-life: 1.52 h
  MRT: 3.43 h
  Tmax: 3 h
[1]; ileum
  Cmax: 4140 ng/mL
  AUC(0-t): 15300 ng·h/mL
  AUC(0-inf): 15400 ng·h/mL
  half-life: 0.55 h
  MRT: 2.43 h
  Tmax: 3 h
[2]
  IC50: 0.07 nM

## Cc1cc(Nc2nc(N[C@@H]3C[C@H]4CCC[C@@H](C3)N4C(=O)CN3CCOCC3)nc3sccc23)n[nH]1 [Embodiment 246, 1-((3-exo)-3-((4-((5-methyl-1H-pyrazol-3-yl)amino)thieno[2,3-d]pyrimidin-2-yl)amino)-9-azabicyclo[3.3.1]non-9-yl)-2-morpholinoethane-1-one]
[1]; plasma, blood
  Cmax: 5.56 ng/mL
  AUC(0-t): 4.76 ng·h/mL
  MRT: 1.46 h
  Tmax: 2 h
[1]; colon
  Cmax: 3260 ng/mL
  AUC(0-t): 13800 ng·h/mL
  MRT: 4.79 h
  Tmax: 7 h
[1]; ileum
  Cmax: 16800 ng/mL
  AUC(0-t): 27900 ng·h/mL
  AUC(0-inf): 28400 ng·h/mL
  half-life: 1.81 h
  MRT: 1.28 h
  Tmax: 1 h
[2]
  IC50: 0.22 nM

## Cc1cnc(Nc2cc3ncccc3c(N[C@@H]3C[C@H]4CC[C@@H](C3)N4CCC#N)n2)s1 [Embodiment 1, 3-((3-exo)-3-((7-((5-methylthioazol-2-yl)amino)-1,6-diazanaphthalen-5-yl)amino)-8-azabicyclo[3.2.1]oct-8-yl)propionitrile]
[1]; plasma, blood
  Cmax: 25.6 ng/mL
  AUC(0-t): 58.1 ng·h/mL
  AUC(0-inf): 61.5 ng·h/mL
  half-life: 1.75 h
  MRT: 2.03 h
  Tmax: 0.5 h
[1]; colon
  Cmax: 2720 ng/mL
  AUC(0-t): 8320 ng·h/mL
  MRT: 3.68 h
  Tmax: 3 h
[1]; ileum
  Cmax: 27100 ng/mL
  AUC(0-t): 90500 ng·h/mL
  AUC(0-inf): 93700 ng·h/mL
  half-life: 1.08 h
  MRT: 2.84 h
  Tmax: 3 h
[2]
  IC50: 0.34 nM

## CNCC(=O)N1[C@@H]2CCC[C@H]1C[C@H](Nc1nc(Nc3cc(C)[nH]n3)c3ccsc3n1)C2 [Embodiment 247, 1-((3-exo)-3-((4-((5-methyl-1H-pyrazol-3-yl)amino)thieno[2,3-d]pyrimidin-2-yl)amino)-9-azabicyclo[3.3.1]non-9-yl)-2-(methylamino)-ethane-1-one]
[1]; colon
  Cmax: 2270 ng/mL
  AUC(0-t): 10200 ng·h/mL
  MRT: 4.05 h
  Tmax: 3 h
[1]; ileum
  Cmax: 13800 ng/mL
  AUC(0-t): 24700 ng·h/mL
  AUC(0-inf): 24900 ng·h/mL
  half-life: 0.92 h
  MRT: 1.39 h
  Tmax: 1 h
[2]
  IC50: 0.1 nM

## Cc1cc(Nc2nc(N[C@@H]3C[C@H]4CC[C@@H](C3)N4S(=O)(=O)N3CC(C#N)C3)nc3ccccc23)n[nH]1 [Embodiment 213, 1-(((3-exo)-3-((4-((5-methyl-1H-pyrazol-3-yl)amino)quinazolin-2-yl)amino)-8-azabicyclo[3.2.1]oct-8-yl)sulfonyl)azetindin-3-formonitrile]
[1]; plasma, blood
  Cmax: 9.69 ng/mL
  AUC(0-t): 7.37 ng·h/mL
  MRT: 2.66 h
  Tmax: 3 h
[1]; colon
  Cmax: 1750 ng/mL
  AUC(0-t): 4930 ng·h/mL
  MRT: 4.92 h
  Tmax: 5 h
[1]; ileum
  Cmax: 321 ng/mL
  AUC(0-t): 1240 ng·h/mL
  MRT: 4.26 h
  Tmax: 5 h
[2]
  IC50: 0.2 nM

## Cc1cc(Nc2nc(N[C@@H]3C[C@H]4CC[C@@H](C3)N4CCC#N)nc3cc(Cl)ccc23)n[nH]1 [Embodiment 171, 3-((3-exo)-3-((7-chloro-4-((5-methyl-1H-pyrazol-3-yl)amino)quinazolin-2-yl)amino)-8-azabicyclo[3.2.1]oct-8-yl)propionitrile]
[1]; plasma, blood
  Cmax: 8.91 ng/mL
  AUC(0-t): 23.4 ng·h/mL
  AUC(0-inf): 26.7 ng·h/mL
  half-life: 1.93 h
  MRT: 3.05 h
  Tmax: 2 h
[1]; colon
  Cmax: 438 ng/mL
  AUC(0-t): 2010 ng·h/mL
  MRT: 4.24 h
  Tmax: 3 h
[1]; ileum
  Cmax: 17000 ng/mL
  AUC(0-t): 79800 ng·h/mL
  MRT: 3.35 h
  Tmax: 3 h
[2]
  IC50: 0.85 nM
